This is an account of results in patent publication US20060046966A1, “Antipicornaviral compounds and compositions, their pharmaceutical uses, and materials for their synthesis” (Agouron Pharmaceuticals, Inc., priority 1998, published 2006).

Usually EC50 stands for the concentration needed to bring the measured effect to its halfway point.

SMILES strings stand for the structures. Where two headings read alike, the source gives them in different places.

Assay [1] deals with HRV (39). The assay is described as follows: Antirhinoviral H1-HeLa cell culture assay, HRV serotype 39. In kind it is cell-based, human rhinovirus. The note with it: Human rhinovirus sp., H1-HeLa cells, XTT. As for the experimental part:
(§1) In this cell protection assay, the ability of compounds to protect cells against HRV infection was measured by the XTT dye reduction method, which is described in Weislow et al., J. Natl. Cancer Inst. 1989, vol. 81, 577-586.
(§2) H1-HeLa cells were infected with HRV-14 at a multiplicity of infection (m.o.i.) of 0.13 (virus particles/cell) or mock-infected with medium only. Infected or mock-infected cells were resuspended at 8×10^5 cells per mL, and incubated with appropriate concentrations of the compounds to be tested. Two days later, XTT/PMS was added to test plates and the amount of formazan produced was quantified spectrophotometrically at 450/650 nm. The EC50 value was calculated as the concentration of compound that increased the percentage of formazan production in compound-treated, virus-infected cells to 50% of that produced by compound-free, mock-infected cells. The 50% cytotoxic dose (CC50) was calculated as the concentration of compound that decreased the percentage of formazan produced in compound-treated, mock-infected cells to 50% of that produced by compound-free, mock-infected cells. The therapeutic index (TI) was calculated by dividing the CC50 value by the EC50 value.
(§3) All strains of human rhinovirus (HRV) for use in this assay were purchased from American Type Culture Collection (ATCC), except for HRV serotype-14 (produced from the infectious cDNA clone constructed by Dr. Robert Rueckert, Institute for Molecular Virology, University of Wisconsin, Madison, Wis.). HRV stocks were propagated and viral assays were performed in H1-HeLa cells (ATCC). Cells were grown in minimal essential medium with 10% fetal bovine serum, available from Life Technologies (Gaithersburg, Md.).
(§4) The compounds were tested against control compounds WIN 51711, WIN 52084, and WIN 54954 (obtained from Sterling-Winthrop Pharmaceuticals), Pirodavir (obtained from Janssen Pharmaceuticals), and Pleconaril (prepared according to the method described in Diana et al., J. Med. Chem 1995, vol. 38, 1355). […]
(Tetrazolium dyes change colour on reduction, which living cells bring about.)

In assay [2] the test system is HRV-14. Nature of the assay: Antirhinoviral H1-HeLa cell culture assay, HRV-14. In kind it is cell-based, human rhinovirus. The settings on record: Rhinovirus B, HRV14, H1-HeLa, HRV serotype-14, H1-HeLa cells. The method in brief: (§5)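 Antiviral EC50 comes from formazan production by infected, compound-treated H1-HeLa cells reaching 50% of the mock-infected, untreated level. Cells grown in MEM/10% FBS were infected at m.o.i. 0.13 and incubated with compound for two days before XTT/PMS addition.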

Assay [3] deals with HRV (89). The assay is described as follows: Antirhinoviral H1-HeLa cell culture assay, HRV serotype 89. In kind it is cell-based, human rhinovirus. The note with it: Human rhinovirus sp., H1-HeLa cells, XTT. The procedure, abridged:
as §5

The test system of assay [4] is HRV (17). The assay is described as follows: Antirhinoviral H1-HeLa cell culture assay, HRV serotype 17. In kind it is cell-based, human rhinovirus. The note with it: Human rhinovirus sp., H1-HeLa cells, XTT. As for the experimental part:
as §1, §2, §3, §4

In assay [5] the test system is HRV (9). Nature of the assay: Antirhinoviral H1-HeLa cell culture assay, HRV serotype 9. In kind it is cell-based, human rhinovirus. The note with it: Human rhinovirus sp., H1-HeLa cells, XTT. The protocol:
as §1, §2, §3, §4

Assay [6] has as its system HRV (87). The assay is described as follows: Antirhinoviral H1-HeLa cell culture assay, HRV serotype 87. In kind it is cell-based. The note with it: Human rhinovirus sp., H1-HeLa cells, XTT. As for the experimental part:
as §1
as §2, with “value. […]” for “value.”

Assay [7] has as its system HRV (38). The assay is described as follows: Antirhinoviral H1-HeLa cell culture assay, HRV serotype 38. In kind it is cell-based. The settings on record: Human rhinovirus sp., H1-HeLa cells, XTT. The protocol: as §1
as §2, with “value. […]” for “value.”

Assay [8] deals with HRV (13). Nature of the assay: Antirhinoviral H1-HeLa cell culture assay, HRV serotype 13. The settings on record: Human rhinovirus sp., H1-HeLa, H1-HeLa cells, XTT. In kind it is cell-based, human rhinovirus. As for the experimental part: as §1, §2, §3, §4
Assay [9] has as its target T1, rhinovirus 3C protease from HRV serotype-14 (Human rhinovirus 14, UniProt P03303).
T1 construct: Recombinant rhinovirus 3C proteases; made in house
The assay is described as follows: Inhibition of rhinovirus 3C protease (FRET assay), serotype 14. The note with it: read-out: Protease Inhibition kobs/[I], HRV serotype-14 3C protease; progress curves in enzyme start experiments. In kind it is biochemical. The procedure, abridged:
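Recombinant 3C protease (50-100 nM) with ~1 μM DABCYL-GRAVFQGPVG-EDANS FRET substrate in 50 mM Tris pH 7.6, 1 mM EDTA, 2% DMSO. Cleavage read as increase in EDANS fluorescence. kobs/[I] derived from progress curves of enzyme-initiated reactions.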

Assay [10] concerns HRV (1A). The assay is described as follows: Antirhinoviral H1-HeLa cell culture assay, HRV serotype 1A. In kind it is cell-based. The settings on record: Human rhinovirus sp., H1-HeLa cells, XTT. As for the experimental part:
as §1, §2, §3
The compounds were tested against control compounds WIN 51711, WIN 52084, and WIN 54954 (obtained from Sterling-Winthrop Pharmaceuticals), Pirodavir (obtained from Janssen Pharmaceuticals), and Pleconaril (prepared according to the method described in Diana et al., J. Med. Chem 1995, vol. 38, 1355). Antiviral data obtained for the test compounds are shown in Tables 1 and 3, where all data are for HRV serotype-14 unless otherwise noted in parentheses.

T1 sequence (P03303 1538-1719): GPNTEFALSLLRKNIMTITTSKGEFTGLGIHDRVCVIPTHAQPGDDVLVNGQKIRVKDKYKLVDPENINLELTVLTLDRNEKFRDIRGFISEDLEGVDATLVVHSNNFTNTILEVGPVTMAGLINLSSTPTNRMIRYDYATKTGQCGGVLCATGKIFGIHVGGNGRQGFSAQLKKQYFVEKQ

In the case of `CCOC(=O)/C=C/[C@H](C[C@@H]1CCNC1=O)NC(=O)[C@@H](CC(=O)[C@@H](NC(=O)c1cc(C)on1)C(C)C)Cc1ccc(F)cc1` [Compound B-2, Ethyl-3-{(5′-Methylisoxazole-3′-carbonyl)-L-ValΨ(COCH2)-L-(4-F-Phe)-L-((S)-Pyrrol-Ala)}-E-Propenoate], the EC50 worked out at 50 nM in [1]; 5 nM in assay [2] (Table 1, XTT dye reduction, read-out: Cell Protection EC50); 5 nM in assay [2] (Table 3, XTT, read-out: EC50); 9 nM in assay [3]; 10 nM in [4]; 6 nM in assay [5]. Moreover, the EC50 in assay [6] was determined as 60 nM; in assay [7], 70 nM; in assay [8], 10 nM; in assay [10], 20 nM. In addition, the kinact/KI in assay [9] turned out to be 1.09e+06 M⁻¹ s⁻¹.
